Key:
[1] = system: IPOHE (Morningglory, Ivyleaf); assay: Preemergence herbicidal evaluation; format: in vivo, Ipomoea hederacea; settings: rated 4-5 weeks after treatment, rating scale 0-9
Procedure, shortened: (§1)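 Each species is sown separately in potting soil over roughly an inch of soil before any emergence. The soil surface then receives an aqueous acetone spray delivering about 0.0156 to 0.500 kg/ha of compound. After four to five weeks, injury is scored from 0 to 9 relative to a control.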

CASOB (Sicklepod) = assay: Preemergence herbicidal evaluation; format: in vivo, Cassia obtusifolia; settings: rated 4-5 weeks after treatment, rating scale 0-9
Procedure, shortened: as §1

GALAP (Galium) = assay: Preemergence herbicidal evaluation; format: in vivo, Galium aparine; settings: rated 4-5 weeks after treatment, rating scale 0-9
Procedure, shortened: as §1

ECHCG (Barnyardgrass) [2] = assay: Postemergence herbicidal evaluation; format: in vivo, Echinochloa crus-galli; settings: postemergence
Procedure, shortened: (§2)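 Visual 0–9 rating versus control (stand, vigor, malformation, size, chlorosis, overall appearance), taken four to five weeks post-spray. Two-week-old seedlings received roughly 0.0156–0.500 kg/ha active in acetone/water (50/50) with 0.5% TWEEN 20 via nozzle at 40 psi.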

[3] = system: GLXMAW (Soybean, Williams); assay: Postemergence herbicidal evaluation; format: in vivo, Glycine max, (L.) Merr. cv Williams; settings: postemergence
Procedure, shortened: as §2

SETVI (Foxtail, Green) = assay: Postemergence herbicidal evaluation; format: in vivo, Setaria viridis; settings: postemergence
Procedure, shortened: as §2

ABUTH (Velvetleaf) = assay: Postemergence herbicidal evaluation; format: in vivo, Abutilon theophrasti; settings: postemergence
Procedure, shortened: as §2

[4] = system: IPOHE (Morningglory, Ivyleaf); assay: Postemergence herbicidal evaluation; format: in vivo, Ipomoea hederacea; settings: postemergence
Procedure, shortened: as §2

ECHCG (Barnyardgrass) [5] = assay: Preemergence herbicidal evaluation; format: in vivo, Echinochloa crus-galli; settings: rated 4-5 weeks after treatment, rating scale 0-9
Procedure, shortened: as §1

[6] = system: CHEAL (Lambsquarters, Common); assay: Preemergence herbicidal evaluation; format: in vivo, Chenopodium album; settings: rated 4-5 weeks after treatment, rating scale 0-9
Procedure, shortened: as §1

[7] = system: TRZAWR (Wheat, Winter, cv Riband); assay: Postemergence herbicidal evaluation; format: in vivo, Triticum aestivum; settings: postemergence
Procedure, shortened: as §2

AMBEL (Ragweed, Common) = assay: Postemergence herbicidal evaluation; format: in vivo, Ambrosia artemisifolia; settings: postemergence
Procedure, shortened: as §2

ZEAMX (Corn, Field) = assay: Preemergence herbicidal evaluation; format: in vivo, Zea mays; settings: rated 4-5 weeks after treatment, rating scale 0-9
Procedure, shortened: as §1

CN(C)c1ccc(CN2C(=O)CSC2=Nc2cc(-n3c(=O)cc(C(F)(F)F)n(C)c3=O)c(F)cc2Cl)cc1 [Compound 138, 3-{4-Chloro-5-{{3-[p-(dimethylamino)benzyl]-4-oxo-2-thiazolidinylidene}amino}-2-fluorophenyl}-1-methyl-6-(trifluoromethyl)-2,4(1H,3H)-pyrimidinedione]
Preemergence herbicidal rating IPOHE ([1]; rate 0.0156 kg/ha): 0.0
Preemergence herbicidal rating IPOHE ([1]; rate 0.0313 kg/ha): 0.0
Preemergence herbicidal rating IPOHE ([1]; rate 0.0625 kg/ha): 0.0
Preemergence herbicidal rating IPOHE ([1]; rate 0.1250 kg/ha): 0.0
Preemergence herbicidal rating IPOHE ([1]; rate 0.2500 kg/ha): 0.0
Preemergence herbicidal rating CASOB (CASOB (Sicklepod); rate 0.0156 kg/ha): 0.0
Preemergence herbicidal rating CASOB (CASOB (Sicklepod); rate 0.0313 kg/ha): 0.0
Preemergence herbicidal rating CASOB (CASOB (Sicklepod); rate 0.0625 kg/ha): 0.0
Preemergence herbicidal rating CASOB (CASOB (Sicklepod); rate 0.1250 kg/ha): 0.0
Preemergence herbicidal rating CASOB (CASOB (Sicklepod); rate 0.2500 kg/ha): 0.0
Preemergence herbicidal rating GALAP (GALAP (Galium); rate 0.0156 kg/ha): 0.0
Preemergence herbicidal rating GALAP (GALAP (Galium); rate 0.0313 kg/ha): 0.0
Preemergence herbicidal rating GALAP (GALAP (Galium); rate 0.0625 kg/ha): 0.0
Preemergence herbicidal rating GALAP (GALAP (Galium); rate 0.1250 kg/ha): 0.0
Preemergence herbicidal rating GALAP (GALAP (Galium); rate 0.2500 kg/ha): 4.0
Herbicidal rating ECHCG (ECHCG (Barnyardgrass) [2]; rate 0.0156 kg/ha): 1.0
Herbicidal rating ECHCG (ECHCG (Barnyardgrass) [2]; rate 0.0313 kg/ha): 1.0
Herbicidal rating ECHCG (ECHCG (Barnyardgrass) [2]; rate 0.0625 kg/ha): 2.0
Herbicidal rating GLXMAW ([3]; rate 0.0156 kg/ha): 5.0
Herbicidal rating GLXMAW ([3]; rate 0.0313 kg/ha): 6.0
Herbicidal rating GLXMAW ([3]; rate 0.0625 kg/ha): 6.5
Herbicidal rating SETVI (SETVI (Foxtail, Green); rate 0.0156 kg/ha): 3.0
Herbicidal rating SETVI (SETVI (Foxtail, Green); rate 0.0313 kg/ha): 4.0
Herbicidal rating SETVI (SETVI (Foxtail, Green); rate 0.0625 kg/ha): 9.0
Herbicidal rating ABUTH (ABUTH (Velvetleaf); rate 0.0156 kg/ha): 9.0
Herbicidal rating ABUTH (ABUTH (Velvetleaf); rate 0.0313 kg/ha): 9.0
Herbicidal rating ABUTH (ABUTH (Velvetleaf); rate 0.0625 kg/ha): 9.0
Herbicidal rating IPOHE ([4]; rate 0.0156 kg/ha): 9.0
Herbicidal rating IPOHE ([4]; rate 0.0313 kg/ha): 9.0
Herbicidal rating IPOHE ([4]; rate 0.0625 kg/ha): 9.0
Preemergence herbicidal rating ECHCG (ECHCG (Barnyardgrass) [5]; rate 0.0156 kg/ha): 0.0
Preemergence herbicidal rating ECHCG (ECHCG (Barnyardgrass) [5]; rate 0.0313 kg/ha): 0.0
Preemergence herbicidal rating ECHCG (ECHCG (Barnyardgrass) [5]; rate 0.0625 kg/ha): 0.0
Preemergence herbicidal rating ECHCG (ECHCG (Barnyardgrass) [5]; rate 0.1250 kg/ha): 0.0
Preemergence herbicidal rating ECHCG (ECHCG (Barnyardgrass) [5]; rate 0.2500 kg/ha): 0.0
Preemergence herbicidal rating CHEAL ([6]; rate 0.0156 kg/ha): 1.0
Preemergence herbicidal rating CHEAL ([6]; rate 0.0313 kg/ha): 9.0
Preemergence herbicidal rating CHEAL ([6]; rate 0.0625 kg/ha): 7.0
Preemergence herbicidal rating CHEAL ([6]; rate 0.1250 kg/ha): 9.0
Preemergence herbicidal rating CHEAL ([6]; rate 0.2500 kg/ha): 9.0
Herbicidal rating TRZAWR ([7]; rate 0.0156 kg/ha): 2.5
Herbicidal rating TRZAWR ([7]; rate 0.0313 kg/ha): 3.0
Herbicidal rating TRZAWR ([7]; rate 0.0625 kg/ha): 3.0
Herbicidal rating AMBEL (AMBEL (Ragweed, Common); rate 0.0156 kg/ha): 9.0
Herbicidal rating AMBEL (AMBEL (Ragweed, Common); rate 0.0313 kg/ha): 9.0
Herbicidal rating AMBEL (AMBEL (Ragweed, Common); rate 0.0625 kg/ha): 9.0
Preemergence herbicidal rating ZEAMX (ZEAMX (Corn, Field); rate 0.0156 kg/ha): 0.0
Preemergence herbicidal rating ZEAMX (ZEAMX (Corn, Field); rate 0.0313 kg/ha): 0.0
Preemergence herbicidal rating ZEAMX (ZEAMX (Corn, Field); rate 0.0625 kg/ha): 0.0
Preemergence herbicidal rating ZEAMX (ZEAMX (Corn, Field); rate 0.1250 kg/ha): 0.0
Preemergence herbicidal rating ZEAMX (ZEAMX (Corn, Field); rate 0.2500 kg/ha): 0.0

COc1cc(CN2C(=O)CSC2=Nc2cc(-n3c(=O)cc(C(F)(F)F)n(C)c3=O)c(F)cc2Cl)cc(OC)c1OC [Compound 140, 3-{4-Chloro-2-fluoro-5-{[3-(3,4,5-trimethoxybenzyl)-4-oxo-2-thiazolidinylidene]amino}phenyl}-1-methyl-6-(trifluoromethyl)-2,4(1H,3H)-pyrimidinedione]
Preemergence herbicidal rating IPOHE ([1]; rate 0.0625 kg/ha): 0.0
Preemergence herbicidal rating IPOHE ([1]; rate 0.1250 kg/ha): 3.0
Preemergence herbicidal rating IPOHE ([1]; rate 0.2500 kg/ha): 3.0
Preemergence herbicidal rating CASOB (CASOB (Sicklepod); rate 0.0625 kg/ha): 0.0
Preemergence herbicidal rating CASOB (CASOB (Sicklepod); rate 0.1250 kg/ha): 0.0
Preemergence herbicidal rating CASOB (CASOB (Sicklepod); rate 0.2500 kg/ha): 0.0
Preemergence herbicidal rating GALAP (GALAP (Galium); rate 0.0625 kg/ha): 0.0
Preemergence herbicidal rating GALAP (GALAP (Galium); rate 0.1250 kg/ha): 0.0
Preemergence herbicidal rating GALAP (GALAP (Galium); rate 0.2500 kg/ha): 0.0
Herbicidal rating ECHCG (ECHCG (Barnyardgrass) [2]; rate 0.0156 kg/ha): 0.0
Herbicidal rating ECHCG (ECHCG (Barnyardgrass) [2]; rate 0.0313 kg/ha): 0.0
Herbicidal rating ECHCG (ECHCG (Barnyardgrass) [2]; rate 0.0625 kg/ha): 0.0
Herbicidal rating GLXMAW ([3]; rate 0.0156 kg/ha): 3.5
Herbicidal rating GLXMAW ([3]; rate 0.0313 kg/ha): 4.5
Herbicidal rating GLXMAW ([3]; rate 0.0625 kg/ha): 5.5
Herbicidal rating SETVI (SETVI (Foxtail, Green); rate 0.0156 kg/ha): 0.0
Herbicidal rating SETVI (SETVI (Foxtail, Green); rate 0.0313 kg/ha): 0.0
Herbicidal rating SETVI (SETVI (Foxtail, Green); rate 0.0625 kg/ha): 0.0
Herbicidal rating ABUTH (ABUTH (Velvetleaf); rate 0.0156 kg/ha): 4.0
Herbicidal rating ABUTH (ABUTH (Velvetleaf); rate 0.0313 kg/ha): 4.0
Herbicidal rating ABUTH (ABUTH (Velvetleaf); rate 0.0625 kg/ha): 9.0
Herbicidal rating IPOHE ([4]; rate 0.0156 kg/ha): 9.0
Herbicidal rating IPOHE ([4]; rate 0.0313 kg/ha): 9.0
Herbicidal rating IPOHE ([4]; rate 0.0625 kg/ha): 9.0
Preemergence herbicidal rating ECHCG (ECHCG (Barnyardgrass) [5]; rate 0.0625 kg/ha): 0.0
Preemergence herbicidal rating ECHCG (ECHCG (Barnyardgrass) [5]; rate 0.1250 kg/ha): 0.0
Preemergence herbicidal rating ECHCG (ECHCG (Barnyardgrass) [5]; rate 0.2500 kg/ha): 0.0
Preemergence herbicidal rating CHEAL ([6]; rate 0.0625 kg/ha): 9.0
Preemergence herbicidal rating CHEAL ([6]; rate 0.1250 kg/ha): 9.0
Preemergence herbicidal rating CHEAL ([6]; rate 0.2500 kg/ha): 9.0
Herbicidal rating TRZAWR ([7]; rate 0.0156 kg/ha): 2.5
Herbicidal rating TRZAWR ([7]; rate 0.0313 kg/ha): 3.5
Herbicidal rating TRZAWR ([7]; rate 0.0625 kg/ha): 4.0
Herbicidal rating AMBEL (AMBEL (Ragweed, Common); rate 0.0156 kg/ha): 2.0
Herbicidal rating AMBEL (AMBEL (Ragweed, Common); rate 0.0313 kg/ha): 2.0
Herbicidal rating AMBEL (AMBEL (Ragweed, Common); rate 0.0625 kg/ha): 4.0
Preemergence herbicidal rating ZEAMX (ZEAMX (Corn, Field); rate 0.0625 kg/ha): 0.0
Preemergence herbicidal rating ZEAMX (ZEAMX (Corn, Field); rate 0.1250 kg/ha): 0.0
Preemergence herbicidal rating ZEAMX (ZEAMX (Corn, Field); rate 0.2500 kg/ha): 0.0

Source: patent publication US20020137929A1, “1 - (3-heterocyclylphenyl) isothiourea, -isourea, -guanidine and -amidine herbicidal agents” (Intellectual Property Department, BASF Aktiengesellschaft, priority 1998, published 2002)
